According to patent publication US20030108526A1, “Microorganisms for use in the measurement of environmental factors” (priority 2001, published 2003):

B1: ZmHK1: maize cytokinin receptor, 974 amino acids, SEQ ID NO: 2 (protein)
chain: MGGKYRAARTKRWWRGLAAAGWVLTAVVCSAVMHWTLRRDSMDRAEERLVSMCEERARMLQEQFGVTVNHVHAIAILISTFNFEKSPPAIDQDTFAKYTARTSFERPLLNGVAFAQRVFHHEREMFESQQGWVMNTMQREPAPPQVEYAPVIFSQDTVSYLARIDMMSGEEDRENIFRARTTGKAVLTNPFRLLGSNHLGVVLTFAVYRPDLPADASVEQRVEATIGYLGGAFDVESLVENLLSKLAGNQDIVVNVYDVTNASDAMVLYGPSSLDEQVPFLHVSMLDFGDPFRKHEMRCRYRQKLPMPWSAITNPLGTFVIWMLLGYSIAAAYSRYDKVTEDCRKMEELKTQAEAADVAKSQFLATASHEIRTPMNGVLGMLDMLLGTDLTMTQKDYAQTAQMCGRALITLINDVLDRAKIEAGKLELEAVPFDLRSLMDDVVSLFSSKSREKCIELAVFVCDNVPKVVIGDPWRFRQILTNLVGNAVKFTERGHVFVRVCLAENSNMEANQVLHGAMNGKGGRVESTANGAFNTLSGFEAADRRNSWQYFKLLLSDKESLLDDLESENSNQSDSDRVTLAISIEDTGVGIPLQAQDRVFTPFMQADSSTSRNYGGTGIGLSISKCLAELMGGQISFTSHPSVGSTFTFSATLKHSHKDISGDSSRSLTEALPTAFKGMKAILVDGRPVRSAVTRYHLKRLGILLQVVNNMNAVVKAFPGQNGAAGSREKASILFIESDFWRPETDVQLLNHLREQKNGQLSDGHKVVLLVTSEADKDKYGSIFDIVMCKPIRASTIASSIQQLLKVEIAERKDNQNRPSFLRSLLVGKNILVVDDNKVNLRVAAAALKKYGANVSCVESGKDAISLLQPPHRFDACFMDVQMPEMDGFEATGQIRQMELKANEERKNKLASIEGSTTAEYHLPVLAMTADVIQATYEECIKSGMDGYVSKPFDEEQLYQAVSRLVVGTTDSAV
modifications: Zea mays

Key:
AHK4 = AHK4 (Arabidopsis thaliana, UniProt Q9C5U0); conditions: experimental conditions of Example 4; Plant Cell Physiol 2001, 42: 107-113; cited from earlier work
ZmHK1 = experiment: Cytokinin sensor function and sensitivity of ZmHK1 in E. coli KMI001 (colony color on LAGX agar); type: cell-based, maize
Text: The protein coding region of pZmHK1 was amplified by PCR and ligated to the BamHI/BSalI site of pIN-IIIΔEH plasmid. Primer sequences used in the PCR amplification are as described below.
Plasmid pIN-IIIΔEH has a promoter that constitutively directs weak expression of a foreign gene in E. coli. The resultant plasmid was designated pIN-III-ZmHK.
The constructed plasmid was transformed into E. coli KMI001 [ΔrcsC, cps::lacZ]. This E. coli strain is a strain in which cps gene involved in polysaccharide synthesis and a binary regulatory factor consisting of rcsC-rcsB (an expression regulatory system for cps) are partially modified. Specifically, sensor histidine kinase gene rcsC is deleted, and β-galactosidase (a marker gene) is inserted downstream of the promoter of cps gene. The resultant transformant was cultured in 2 ml of LAG liquid medium (1% Bacto tryptone, 0.5% Bacto yeast extract, 1% NaCl, 40 mM glucose, 50 mM phosphate buffer, pH 7.0) overnight at 25° C. The resultant culture broth was centrifuged and the supernatant was discarded. The E. coli cell pellet was washed twice in sterilized water and suspended in 2 ml (final volume) of sterilized water. This suspension was spotted at two points each on LAGX agar medium (1% Bacto tryptone, 0.5% Bacto yeast extract, 1% NaCl, 40 mM glucose, 50 mM phosphate buffer, pH 7.0, 80 μg/ml X-gal, 1.5% agarose) containing 1 μM trans-zeatin (t-zeatin) and on LAGX agar medium not containing t-zeatin, and cultured overnight (12 hr) at 25° C. The next day, the color of each colony was observed.
E. coli suspension was prepared in the same manner as in Example 4. Subsequently, the suspension was spotted on LAGX agar medium containing t-zeatin at varied concentrations from 0 nM to 1000 nM, and cultured overnight (12 hr) at 25° C. The next day, the color of each colony was observed.

[1] = test system: cps::lacZ (β-galactosidase) expression in E. coli KMI001; experiment: Examination of biosensor function: IPTG-induced sensor E. coli or its supernatant with receptor-transferred marker E. coli; type: cell-based, Escherichia coli; conditions: 1 mM IPTG, Examples 6 and 7
Text: (§1) The next day, the color of each colony was observed.
as §1

Sequence of AHK4 (Q9C5U0 whole entry): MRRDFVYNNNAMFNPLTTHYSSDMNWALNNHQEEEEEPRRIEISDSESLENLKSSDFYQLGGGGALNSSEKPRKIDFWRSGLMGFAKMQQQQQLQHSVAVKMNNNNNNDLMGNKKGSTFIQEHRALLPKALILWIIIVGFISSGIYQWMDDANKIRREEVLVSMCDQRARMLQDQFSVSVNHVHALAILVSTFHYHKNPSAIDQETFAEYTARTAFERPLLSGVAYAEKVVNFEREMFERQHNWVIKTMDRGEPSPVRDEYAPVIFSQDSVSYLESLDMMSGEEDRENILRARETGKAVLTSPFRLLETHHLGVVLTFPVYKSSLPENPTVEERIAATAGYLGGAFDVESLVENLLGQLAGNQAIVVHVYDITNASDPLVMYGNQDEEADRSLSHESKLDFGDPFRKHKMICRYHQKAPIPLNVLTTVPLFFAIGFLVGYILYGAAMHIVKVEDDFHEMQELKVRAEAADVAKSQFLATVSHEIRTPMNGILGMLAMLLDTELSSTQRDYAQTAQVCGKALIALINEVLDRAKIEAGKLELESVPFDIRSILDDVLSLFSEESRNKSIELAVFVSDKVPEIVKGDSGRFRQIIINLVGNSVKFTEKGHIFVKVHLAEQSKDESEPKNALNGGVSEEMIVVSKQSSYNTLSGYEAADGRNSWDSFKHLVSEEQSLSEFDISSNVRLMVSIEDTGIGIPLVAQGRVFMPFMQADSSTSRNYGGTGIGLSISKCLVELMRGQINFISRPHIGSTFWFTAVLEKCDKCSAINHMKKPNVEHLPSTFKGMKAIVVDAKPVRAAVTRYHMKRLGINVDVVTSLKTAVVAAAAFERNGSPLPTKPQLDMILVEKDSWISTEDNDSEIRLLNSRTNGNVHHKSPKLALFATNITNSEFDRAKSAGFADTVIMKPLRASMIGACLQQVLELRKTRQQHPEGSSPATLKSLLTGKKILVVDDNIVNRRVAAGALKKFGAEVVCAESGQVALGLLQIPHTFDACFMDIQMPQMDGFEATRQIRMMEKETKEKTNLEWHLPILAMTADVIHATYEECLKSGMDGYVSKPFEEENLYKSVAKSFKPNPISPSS

Row | Molecule | lowest t-zeatin concentration to which AHK4-transferred E. coli is able to respond (AHK4) | β-galactosidase expression of ZmHK1-transferred E. coli in response to the cytokinin in the medium (ZmHK1; 1 μM t-zeatin in LAGX agar, 12 hr, 25° C.) | t-zeatin concentration to which ZmHK1-transferred E. coli responds (ZmHK1; LAGX agar with 0 nM to 1000 nM t-zeatin, 12 hr, 25° C.) | Biosensor response (blue colony color) of receptor-transferred transformant to IPTG [1] | ability to perceive cytokinins compared to that of AHK4 (ZmHK1) | color development of transferred E. coli spot compared with AHK4-transferred E. coli spots (ZmHK1; FIG. 1, 1 μM t-zeatin)
1 | C/C(=C\CNc1ncnc2nc[nH]c12)CO [t-zeatin, trans-zeatin] | approx. 50 nM | expressed β-galactosidase | ≤ 10 µM | – | – | –
2 | AHK4: Arabidopsis thaliana cytokinin receptor (sensor protein) | – | – | – | did not present a blue color | – | –
3 | B1 | – | – | – | discriminated the presence or absence of a specific substance | approximately 10 fold | more intensive color development
